Test results: patent US7125878B2, “Substituted pyrroline kinase inhibitors” (Janssen Pharmaceutica, priority 2002, dated 2006)
“And” between values parts separate entries of the source, which are not always exact repeats. Equal values may be shown once.

Tests used:
[1] = molecular target: PKC-α (Homo sapiens, UniProt P17252); experiment: Protein Kinase C Histone-Based Assay, isozyme α; conditions: for inhibition at 1 µM / inhibition at 10 µM: read-out: PKC-α % inhibition
Experimental: (§1) Compounds were evaluated for PKC isozyme selectivity using histone III as the substrate. […] 100 μg/mL phosphatidylserine, 20 μg/mL diacylglycerol, 30 μM ATP, 1 μCi [^33P]ATP and 200 μg/mL histone III. The reaction was incubated for 10 min at 30° C. Reactions were terminated by TCA precipitation and spotting on Whatman P81 filters. Filters were washed in 75 mM phosphoric acid and the radioactivity quantified by liquid scintillation counting.

[2] = molecular target: PKC-βII (Homo sapiens, UniProt P05771); experiment: Protein Kinase C Histone-Based Assay, isozyme β-II; assay type: biochemical; conditions: for IC50: histone III substrate
Experimental: as §1

[3] = molecular target: PKC-γ (Homo sapiens, UniProt P05129); experiment: Protein Kinase C Histone-Based Assay, isozyme γ; conditions: for inhibition at 1 µM / inhibition at 10 µM: read-out: PKC-γ % inhibition
Experimental: as §1

[4] = molecular target: T1, recombinant rabbit GSK-3β protein (Oryctolagus cuniculus, UniProt G1T8E2); experiment: Glycogen Synthase Kinase-3 Assay (33P phosphorylation of PPI-2); assay type: biochemical; conditions: for IC50: two numbers = data obtained on different days; for inhibition at 1 µM: two numbers = different days
T1 construct: purchased New England Biolabs
Experimental: Glycogen Synthase Kinase-3 Assay
Compounds were tested for the ability to inhibit recombinant rabbit GSK-3β protein using the following protocol. The test compound was added to a reaction mixture containing Protein Phosphatase Inhibitor-2 (PPI-2) (Calbiochem) (45 ng), rabbit GSK-3β protein (New England Biolabs) (0.75 units) and ^33P-ATP (1 μCi) in 50 mM Tris-HCl (pH 8.0), 10 mM MgCl2, 0.1% BSA, 1 mM DTT and 100 μM Sodium Vanadate. The mixture was reacted for 90 minutes at 30° C. to allow phosphorylation of the PPI-2 protein and then the protein in the reaction was precipitated using 10% TCA. The precipitated protein was collected on filter plates (MultiScreen-DV/Millipore), which were subsequently washed. Finally, the radioactivity was quantified using a TopCount Scintillation Counter (Packard). […] Staurosporine or Valproate, known inhibitors of GSK-3β, were used as a positive control for screening.

Sequence of PKC-βII (P05771 1-673 isoform P05771-2): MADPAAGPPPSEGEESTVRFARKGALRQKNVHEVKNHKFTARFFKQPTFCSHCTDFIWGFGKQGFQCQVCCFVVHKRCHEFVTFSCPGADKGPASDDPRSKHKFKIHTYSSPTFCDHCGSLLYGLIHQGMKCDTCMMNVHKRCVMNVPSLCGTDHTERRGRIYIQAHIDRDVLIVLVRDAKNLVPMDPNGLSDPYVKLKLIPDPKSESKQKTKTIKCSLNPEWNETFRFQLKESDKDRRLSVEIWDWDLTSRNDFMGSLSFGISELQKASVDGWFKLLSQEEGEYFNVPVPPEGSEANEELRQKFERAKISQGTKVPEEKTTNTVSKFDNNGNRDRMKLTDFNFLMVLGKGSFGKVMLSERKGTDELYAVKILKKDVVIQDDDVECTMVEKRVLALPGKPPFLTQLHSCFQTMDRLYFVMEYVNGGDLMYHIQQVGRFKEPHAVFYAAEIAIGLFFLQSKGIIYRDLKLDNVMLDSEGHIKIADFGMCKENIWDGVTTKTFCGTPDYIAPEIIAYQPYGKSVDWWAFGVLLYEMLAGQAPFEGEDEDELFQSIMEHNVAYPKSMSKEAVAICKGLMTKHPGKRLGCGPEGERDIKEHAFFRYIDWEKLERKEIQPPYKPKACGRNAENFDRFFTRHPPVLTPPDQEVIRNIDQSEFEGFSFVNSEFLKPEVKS
T1 sequence (G1T8E2 1-432): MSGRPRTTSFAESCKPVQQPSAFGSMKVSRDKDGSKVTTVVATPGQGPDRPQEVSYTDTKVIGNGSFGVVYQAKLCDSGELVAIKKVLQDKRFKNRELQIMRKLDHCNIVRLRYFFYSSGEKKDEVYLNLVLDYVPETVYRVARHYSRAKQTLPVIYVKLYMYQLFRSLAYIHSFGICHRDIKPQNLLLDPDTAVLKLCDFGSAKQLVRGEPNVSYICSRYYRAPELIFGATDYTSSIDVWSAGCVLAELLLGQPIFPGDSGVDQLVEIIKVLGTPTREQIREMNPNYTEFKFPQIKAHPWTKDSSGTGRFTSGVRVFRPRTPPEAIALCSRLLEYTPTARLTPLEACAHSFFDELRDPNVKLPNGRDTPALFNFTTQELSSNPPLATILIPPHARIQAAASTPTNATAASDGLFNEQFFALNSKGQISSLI

SMILES	inhibition at 1 µM [1]	inhibition at 10 µM [1]	inhibition at 1 µM [2]	inhibition at 10 µM [2]	inhibition at 1 µM [3]	inhibition at 10 µM [3]	IC50 [4]	inhibition at 0.1 µM ([4]; @100 nM)	inhibition at 0.4 µM ([4]; @400 nM)	IC50 [1]	IC50 [2]	IC50 [3]	inhibition at 1 µM [4]
O=C1NC(=O)C(c2cn(CCCO)c3ncccc23)=C1c1ccccc1Cl [Cpd 1, 3-(2-chlorophenyl)-4-[1-(3-hydroxypropyl)-1H-pyrrolo[2,3-b]pyridin-3-yl]-1H-pyrrole-2,5-dione]	18%	2%	14%	81%	48%	43%	0.009 µM and 0.01 µM	–	–	–	–	–	–
CN(C)CCCn1cc(C2=C(c3ccccc3Cl)C(=O)NC2=O)c2cccnc21 [Cpd 2, 3-(2-chlorophenyl)-4-[1-[3-(dimethylamino)propyl]-1H-pyrrolo[2,3-b]pyridin-3-yl]-1H-pyrrole-2,5-dione]	0%	1%	22%	50%	46%	54%	0.019 µM	–	–	–	–	–	–
O=C1NC(=O)C(c2cn(CCCO)c3ncccc23)=C1c1cccc2ccccc12 [Cpd 3, 3-[1-(3-hydroxypropyl)-1H-pyrrolo[2,3-b]pyridin-3-yl]-4-(1-naphthalenyl)-1H-pyrrole-2,5-dione]	0%	51%	30%	89%	20%	31%	0.03 µM and 0.031 µM	–	–	–	–	–	–
CN(C)CCCn1cc(C2=C(c3cccc4ccccc34)C(=O)NC2=O)c2cccnc21 [Cpd 4, 3-[1-[3-(dimethylamino)propyl]-1H-pyrrolo[2,3-b]pyridin-3-yl]-4-(1-naphthalenyl)-1H-pyrrole-2,5-dione]	0%	34%	47%	84%	48%	59%	–	51%	–	–	–	–	–
O=C1NC(=O)C(c2cn(CCCO)c3ncccc23)=C1c1csc2ccc(Cl)cc12 [Cpd 5, 3-(5-chlorobenzo[b]thien-3-yl)-4-[1-(3-hydroxypropyl)-1H-pyrrolo[2,3-b]pyridin-3-yl]-1H-pyrrole-2,5-dione]	0%	34%	21%	81%	44%	57%	–	–	56%	–	–	–	–
CN(C)CCCn1nc(C2=C(c3cn(-c4ccc5ccccc5c4)c4ncccc34)C(=O)NC2=O)c2ccccc21 [Cpd 20, 3-[1-[3-(dimethylamino)propyl]-1H-indazol-3-yl]-4-[1-(2-naphthalenyl)-1H-pyrrolo[2,3-b]pyridin-3-yl]-1H-pyrrole-2,5-dione]	–	–	–	–	–	–	–	–	–	0.053 µM	0.002 µM	0.151 µM	21%
O=C1NC(=O)C(c2nn(CCCO)c3ccccc23)=C1c1cn(-c2ccc3ccccc3c2)c2ncccc12 [Cpd 21, 3-[1-(3-hydroxypropyl)-1H-indazol-3-yl]-4-[1-(2-naphthalenyl)-1H-pyrrolo[2,3-b]pyridin-3-yl]-1H-pyrrole-2,5-dione]	–	–	–	–	–	–	–	–	–	1.44 µM	0.036 µM	0.859 µM	44%
COC(=O)NCCCn1cc(C2=C(c3ccccc3OC)C(=O)NC2=O)c2cccnc21 [Cpd 35, [3-[3-[2,5-dihydro-4-(2-methoxyphenyl)-2,5-dioxo-1H-pyrrol-3-yl]-1H-pyrrolo[2,3-b]pyridin-1-yl]propyl]-carbamic acid methyl ester]	–	31%	35%	–	–	35%	0.008 µM and 0.011 µM	–	–	–	–	–	–
COC(=O)NCCCn1cc(C2=C(c3ccccc3C(F)(F)F)C(=O)NC2=O)c2cccnc21 [Cpd 37, [3-[3-[2,5-dihydro-4-(2-trifluoromethylphenyl)-2,5-dioxo-1H-pyrrol-3-yl]-1H-pyrrolo[2,3-b]pyridin-1-yl]propyl]-carbamic acid methyl ester]	–	–	–	–	–	–	0.014 µM and 0.019 µM	–	–	5.27 µM	0.342 µM	4.75 µM	–
COc1ccccc1C1=C(c2cn(CCCNC=O)c3ncccc23)C(=O)NC1=O [Cpd 78, N-[3-[3-[2,5-dihydro-4-(2-methoxyphenyl)-2,5-dioxo-1H-pyrrol-3-yl]-1H-pyrrolo[2,3-b]pyridin-1-yl]propyl]-formamide]	–	33%	21%	–	–	48%	0.007 µM and 0.009 µM	–	–	–	–	–	–
